The record followed here is US12336982B2 (RODEO THERAPEUTICS CORPORATION, priority 2018, dated 2025).

Each structure is given as a SMILES string. pIC50: −log10 of the molar value.

For orientation: pIC50 means −log10 of the IC50, conventionally taken in molar units.

The assay has as its target T1, recombinant 15-PGDH (Homo sapiens, UniProt P15428).
T1 sequence (P15428 1-266): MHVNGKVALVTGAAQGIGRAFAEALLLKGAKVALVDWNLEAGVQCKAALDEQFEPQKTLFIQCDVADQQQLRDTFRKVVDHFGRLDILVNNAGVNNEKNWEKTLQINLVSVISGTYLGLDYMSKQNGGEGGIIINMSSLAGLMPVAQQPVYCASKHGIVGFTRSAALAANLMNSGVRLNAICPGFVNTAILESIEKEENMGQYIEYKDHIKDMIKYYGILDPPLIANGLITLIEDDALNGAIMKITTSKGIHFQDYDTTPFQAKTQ
Type of assay: biochemical. Conditions: recombinant human 15-PGDH, in vitro; read-out: PDGH Assay-IC50.

From the text: The Recombinant 15-PGDH is human unless otherwise specified.

Take `COCC[S+]([O-])c1sc2nc(-c3cnn4ccnc4c3)cc(-c3ccnn3C)c2c1N` (stereo not shown) [Example 318]: the pIC50 was above 8.60.

`Nc1ncc(-c2cc(-c3ccc(C4COC4)cc3)c3c(N)c([S+]([O-])C4CCC4)sc3n2)cn1` (stereo not shown) [Example 143]: the pIC50 is above 8.60.

Take `COCC[S+]([O-])c1sc2nc(-c3cnc(NCCO)nc3)cc(-c3ccccc3)c2c1N` (stereo not shown) [Example 126]: the pIC50 is above 8.60.

As to `Nc1c([S@@+]([O-])C2CCC2)sc2nc(-c3cncnc3)cc(-c3ccon3)c12` [Example 310], the pIC50 is at most 8.00.

As for `Cn1nccc1-c1cc(-c2ccc3c(=O)[nH]ccc3c2)nc2sc([S+]([O-])C3CCC3)c(N)c12` (stereo not shown) [Example 316], the pIC50 was 8.00 to 8.60.

As for `COCC[S+]([O-])c1sc2nc(-c3cnc4nn(C)cc4c3)cc(C3CC3)c2c1N` (stereo not shown) [Example 176], the pIC50 is above 8.60.

For `COCCC[S@+]([O-])c1sc2nc(-c3cncnc3)cc(-c3cnccn3)c2c1N` [Example 235], the pIC50 is above 8.60.

As for `COCC[S+]([O-])c1sc2nc(-c3cnc4c(c3)nnn4C)cc(C3CC3)c2c1N` (stereo not shown) [Example 244], the pIC50 was above 8.60.

In the case of `Cn1nccc1-c1cc(-c2cnc(NCCO)nc2)nc2sc([S+]([O-])C(C)(C)C)c(N)c12` (stereo not shown) [Example 354], the pIC50 is above 8.60.

`COCCC[S+]([O-])c1sc2nc(-c3cncnc3)cc(-c3ccncn3)c2c1N` (stereo not shown) [Example 237]: the pIC50 is above 8.60.

Turning to `Cc1cc(-c2cc(-c3cncnc3)nc3sc([S+]([O-])C4CCC4)c(N)c23)n(C)n1` (stereo not shown) [Example 356], the pIC50 was above 8.60.

On to `COCCC[S+]([O-])c1sc2nc(-c3cnc4c(cnn4C)c3)cc(-c3cccnc3)c2c1N` (stereo not shown) [Example 74], for which the pIC50 was above 8.60.

For the compound `COCC[S@@+]([O-])c1sc2nc(-c3cnc(N)nc3)cc(-c3ccccc3)c2c1N` [Example 87], the pIC50 is above 8.60.

As to `COCC[S+]([O-])c1sc2nc(-c3cnc(N4CCOCC4)nc3)cc(C(F)(F)F)c2c1N` (stereo not shown) [Example 424], the pIC50 is above 8.60.

`COCC[S@+]([O-])c1sc2nc(-c3cncnc3)cc(-c3ccccc3)c2c1N` [Example 86]: the pIC50 is at most 8.00.

Take `COCC[S@@+]([O-])c1sc2nc(-c3cncnc3)cc(C3CCC3)c2c1N` [Example 252]: the pIC50 was above 8.60.

In the case of `COCC[S@@+]([O-])c1sc2nc(-c3cnc4c(c3)CNC4=O)cc(-c3ccccc3)c2c1N` [Example 242], the pIC50 is above 8.60.

Regarding `Cn1cncc(-c2cc(-c3ccccc3)c3c(N)c([S+]([O-])C4CCC4)sc3n2)c1=O` (stereo not shown) [Example 410], the pIC50 was 8.00 to 8.60.

`COCC[S+]([O-])c1sc2nc(-c3cnc4c(c3)ncn4C)cc(-c3ccnn3C)c2c1N` (stereo not shown) [Example 379]: the pIC50 was above 8.60.

On to `CN(C)CCOc1ccc(-c2cc(-c3ccccc3)c3c(N)c([S+]([O-])C4CCC4)sc3n2)cn1` (stereo not shown) [Example 60], for which the pIC50 was 8.00 to 8.60.

Turning to `Nc1c([S+]([O-])C2CCC2)sc2nc(-c3cnc(NCCO)nc3)cc(C3COC3)c12` (stereo not shown) [Example 222], the pIC50 is above 8.60.

With `COCC[S@+]([O-])c1sc2nc(-c3cnc4nn(C)cc4c3)cc(C(F)(F)F)c2c1N` [Example 419], the pIC50 was at most 8.00.

Turning to `COCC[S@+]([O-])c1sc2nc(-c3cnc4c(c3)ncn4C)cc(C3CCC3)c2c1N` [Example 375], the pIC50 is at most 8.00.

`Cn1nccc1-c1cc(-c2ccnnc2)nc2sc([S+]([O-])C3CCC3)c(N)c12` (stereo not shown) [Example 345]: the pIC50 is above 8.60.

`Cn1ccc(-c2cc(-c3ccnnc3)nc3sc([S+]([O-])C4CCC4)c(N)c23)n1` (stereo not shown) [Example 213]: the pIC50 was above 8.60.

With `COC(=O)Nc1ccc(-c2cc(-c3cccnc3)c3c(N)c([S+]([O-])C4CCC4)sc3n2)cn1` (stereo not shown) [Example 100], the pIC50 is above 8.60.

Take `COCC[S+]([O-])c1sc2nc(-c3cnc4c(c3)nnn4C)cc(-c3ccnn3C)c2c1N` (stereo not shown) [Example 324]: the pIC50 is above 8.60.

Consider `Nc1c([S+]([O-])C2CCC2)sc2nc(-c3cnc4nn(CCO)cc4c3)cc(C3CCC3)c12` (stereo not shown) [Example 348], for which the pIC50 was 8.00 to 8.60.
